Laboratory results as given in patent publication US6737383B1, “Herbicidal oxadiazolidines” (priority 1999, dated 2004).

Legend:
bedstraw = experiment: Test B pre/postemergence bedstraw; assay type: in vivo, Galium aparine; conditions: for Bedstraw plant response rating: scale of 0 to 10 where 0 is no effect and 10 is complete control
Procedure, shortened: (§1)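 Response is a visual 0-to-10 score relative to untreated plants, where 0 means no effect and 10 means complete control, taken twelve to sixteen days after application. Treatments went onto soil at planting and onto foliage of 1- to 4-leaf plants, using a surfactant-containing non-phytotoxic solvent.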

surinam grass = experiment: Test B pre/postemergence surinam grass; assay type: in vivo, Brachiaria decumbens; conditions: for B. signalgrass plant response rating: scale of 0 to 10 where 0 is no effect and 10 is complete control
Procedure, shortened: as §1

cocklebur = experiment: Test B pre/postemergence cocklebur; assay type: in vivo, Xanthium strumarium; conditions: for Cocklebur plant response rating: scale of 0 to 10 where 0 is no effect and 10 is complete control
Procedure, shortened: as §1

corn = experiment: Test B pre/postemergence corn; assay type: in vivo, Zea mays; conditions: for Corn plant response rating: scale of 0 to 10 where 0 is no effect and 10 is complete control
Procedure, shortened: as §1

crabgrass = experiment: Test B pre/postemergence crabgrass; assay type: in vivo, Digitaria sanguinalis; conditions: for Crabgrass plant response rating: scale of 0 to 10 where 0 is no effect and 10 is complete control
Procedure, shortened: as §1

giant foxtail = experiment: Test B pre/postemergence giant foxtail; assay type: in vivo, Setaria faberii; conditions: for Giant foxtail plant response rating: scale of 0 to 10 where 0 is no effect and 10 is complete control
Procedure, shortened: as §1

morningglory = experiment: Test B pre/postemergence morningglory; assay type: in vivo, Ipomoea hederacea; conditions: for Morningglory plant response rating: scale of 0 to 10 where 0 is no effect and 10 is complete control
Procedure, shortened: as §1

pigweed = experiment: Test B pre/postemergence pigweed; assay type: in vivo, Amaranthus retroflexus; conditions: for Redroot pigweed plant response rating: scale of 0 to 10 where 0 is no effect and 10 is complete control
Procedure, shortened: as §1

rape = experiment: Test B pre/postemergence rape; assay type: in vivo, Brassica napus; conditions: for Rape plant response rating: scale of 0 to 10 where 0 is no effect and 10 is complete control
Procedure, shortened: as §1

soybean = experiment: Test B pre/postemergence soybean; assay type: in vivo, Glycine max; conditions: for Soybean plant response rating: scale of 0 to 10 where 0 is no effect and 10 is complete control
Procedure, shortened: as §1

sugar beet = experiment: Test B pre/postemergence sugar beet; assay type: in vivo, Beta vulgaris; conditions: for Sugarbeets plant response rating: scale of 0 to 10 where 0 is no effect and 10 is complete control
Procedure, shortened: as §1

velvetleaf = experiment: Test B pre/postemergence velvetleaf; assay type: in vivo, Abutilon theophrasti; conditions: for Velvetleaf plant response rating: scale of 0 to 10 where 0 is no effect and 10 is complete control
Procedure, shortened: as §1

wheat = experiment: Test B pre/postemergence wheat; assay type: in vivo, Triticum aestivum; conditions: for Wheat plant response rating: scale of 0 to 10 where 0 is no effect and 10 is complete control
Procedure, shortened: as §1

purple nutsedge = experiment: Test B pre/postemergence purple nutsedge; assay type: in vivo, Cyperus rotundus; conditions: for Nutsedge plant response rating: scale of 0 to 10 where 0 is no effect and 10 is complete control
Procedure, shortened: as §1

duck salad = experiment: Test B flood test duck salad; assay type: in vivo, Heteranthera limosa
Procedure, shortened: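 Read-out is a visual response score from 0 (no effect) to 10 (complete control), assigned by comparison with untreated controls. Treatment was applied at the 2-leaf stage, and plants stayed in the greenhouse for twelve to sixteen days before scoring.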

[1] = Postemergence, Rate 250 g/ha, scale 0 to 10, 0 is no effect, 10 is complete control
[2] = Preemergence, Rate 62 g/ha, scale 0 to 10 (0 no effect, 10 complete control)
[3] = Postemergence, Rate 125 g/ha, scale 0 to 10, 0 is no effect, 10 is complete control
[4] = Rate 500 g/ha, Postemergence, scale 0 to 10, 0 no effect, 10 complete control

Cc1nnsc1Cn1c(=O)on(C(=O)N(c2ccccc2)C(C)C)c1=O [Compound 378]
Plant response rating, Bedstraw (bedstraw; [1]): 0 | Plant response rating, Bedstraw (bedstraw; [2]): 0 | Bedstraw plant response rating (0 to 10 scale) (bedstraw; Preemergence, Rate 125 g/ha): 0 | Bedstraw plant response rating (bedstraw; Preemergence, Rate 250 g/ha): 0 | Bedstraw plant response rating (bedstraw; Preemergence, Rate 500 g/ha): 0 | Plant response rating, B. signalgrass (surinam grass; [3]): 0 | Plant response rating, B. signalgrass (surinam grass; [1]): 0 | Plant response rating, B. signalgrass (surinam grass; [2]): 0 | B. signalgrass plant response rating (0 to 10 scale, 0 is no effect, 10 is complete control) (surinam grass; Preemergence, Rate 125 g/ha): 0 | B. signalgrass plant response rating (surinam grass; Preemergence, Rate 250 g/ha): 0 | B. signalgrass plant response rating (surinam grass; Preemergence, Rate 500 g/ha): 0 | B. signalgrass plant response rating (surinam grass; Rate 62 g/ha, Postemergence): 0 | Plant response rating, B. signalgrass (surinam grass; [4]): 2 | Plant response rating, Cocklebur (cocklebur; [3]): 0 | Plant response rating, Cocklebur (cocklebur; [1]): 0 | Plant response rating, Cocklebur (cocklebur; [2]): 0 | Cocklebur plant response rating (0 to 10 scale) (cocklebur; Preemergence, Rate 125 g/ha): 0 | Cocklebur plant response rating (cocklebur; Preemergence, Rate 250 g/ha): 0 | Cocklebur plant response rating (cocklebur; Preemergence, Rate 500 g/ha): 0 | Cocklebur plant response rating (cocklebur; Rate 62 g/ha, Postemergence): 0 | Plant response rating, Cocklebur (cocklebur; [4]): 1 | Plant response rating, Corn (corn; [3]): 0 | Plant response rating, Corn (corn; [1]): 0 | Plant response rating, Corn (corn; [2]): 0 | Corn plant response rating (0 to 10 scale) (corn; Preemergence, Rate 125 g/ha): 0 | Corn plant response rating (corn; Preemergence, Rate 250 g/ha): 0 | Corn plant response rating (corn; Preemergence, Rate 500 g/ha): 0 | Corn plant response rating (corn; Rate 62 g/ha, Postemergence): 0 | Plant response rating, Corn (corn; [4]): 0 | Plant response rating, Crabgrass (crabgrass; [3]): 0 | Plant response rating, Crabgrass (crabgrass; [1]): 0 | Plant response rating, Crabgrass (crabgrass; [2]): 0 | Crabgrass plant response rating (0 to 10 scale) (crabgrass; Preemergence, Rate 125 g/ha): 3 | Crabgrass plant response rating (crabgrass; Preemergence, Rate 250 g/ha): 9 | Crabgrass plant response rating (crabgrass; Preemergence, Rate 500 g/ha): 10 | Crabgrass plant response rating (crabgrass; Rate 62 g/ha, Postemergence): 0 | Plant response rating, Crabgrass (crabgrass; [4]): 2 | Plant response rating, Giant foxtail (giant foxtail; [3]): 0 | Plant response rating, Giant foxtail (giant foxtail; [1]): 3 | Plant response rating, Giant foxtail (giant foxtail; [2]): 4 | Giant foxtail plant response rating (0 to 10 scale) (giant foxtail; Preemergence, Rate 125 g/ha): 4 | Giant foxtail plant response rating (giant foxtail; Preemergence, Rate 250 g/ha): 10 | Giant foxtail plant response rating (giant foxtail; Preemergence, Rate 500 g/ha): 10 | Giant foxtail plant response rating (giant foxtail; Rate 62 g/ha, Postemergence): 0 | Plant response rating, Giant foxtail (giant foxtail; [4]): 8 | Plant response rating, Morningglory (morningglory; [3]): 7 | Plant response rating, Morningglory (morningglory; [1]): 10 | Plant response rating, Morningglory (morningglory; [2]): 0 | Morningglory plant response rating (0 to 10 scale) (morningglory; Preemergence, Rate 125 g/ha): 0 | Morningglory plant response rating (morningglory; Preemergence, Rate 250 g/ha): 0 | Morningglory plant response rating (morningglory; Preemergence, Rate 500 g/ha): 0 | Morningglory plant response rating (morningglory; Rate 62 g/ha, Postemergence): 5 | Plant response rating, Morningglory (morningglory; [4]): 10 | Plant response rating, Redroot pigweed (pigweed; [3]): 0 | Plant response rating, Redroot pigweed (pigweed; [1]): 0 | Plant response rating, Redroot pigweed (pigweed; [2]): 0 | Redroot pigweed plant response rating (0 to 10 scale) (pigweed; Preemergence, Rate 125 g/ha): 0 | Redroot pigweed plant response rating (pigweed; Preemergence, Rate 250 g/ha): 0 | Redroot pigweed plant response rating (pigweed; Preemergence, Rate 500 g/ha): 0 | Redroot pigweed plant response rating (pigweed; Rate 62 g/ha, Postemergence): 0 | Plant response rating, Redroot pigweed (pigweed; [4]): 2 | Plant response rating, Rape (rape; [3]): 0 | Plant response rating, Rape (rape; [1]): 0 | Plant response rating, Rape (rape; [2]): 0 | Rape plant response rating (0 to 10 scale) (rape; Preemergence, Rate 125 g/ha): 0 | Rape plant response rating (rape; Preemergence, Rate 250 g/ha): 0 | Rape plant response rating (rape; Preemergence, Rate 500 g/ha): 0 | Rape plant response rating (rape; Rate 62 g/ha, Postemergence): 0 | Plant response rating, Rape (rape; [4]): 3 | Plant response rating, Soybean (soybean; [3]): 0 | Plant response rating, Soybean (soybean; [1]): 0 | Plant response rating, Soybean (soybean; [2]): 0 | Soybean plant response rating (0 to 10 scale) (soybean; Preemergence, Rate 125 g/ha): 0 | Soybean plant response rating (soybean; Preemergence, Rate 250 g/ha): 0 | Soybean plant response rating (soybean; Preemergence, Rate 500 g/ha): 0 | Soybean plant response rating (soybean; Rate 62 g/ha, Postemergence): 0 | Plant response rating, Soybean (soybean; [4]): 2 | Plant response rating, Sugarbeets (sugar beet; [3]): 0 | Plant response rating, Sugarbeets (sugar beet; [1]): 0 | Plant response rating, Sugarbeets (sugar beet; [2]): 0 | Sugarbeets plant response rating (0 to 10 scale) (sugar beet; Preemergence, Rate 125 g/ha): 0 | Sugarbeets plant response rating (sugar beet; Preemergence, Rate 250 g/ha): 0 | Sugarbeets plant response rating (sugar beet; Preemergence, Rate 500 g/ha): 0 | Sugarbeets plant response rating (sugar beet; Rate 62 g/ha, Postemergence): 0 | Plant response rating, Sugarbeets (sugar beet; [4]): 0 | Plant response rating, Velvetleaf (velvetleaf; [3]): 0 | Plant response rating, Velvetleaf (velvetleaf; [1]): 0 | Plant response rating, Velvetleaf (velvetleaf; [2]): 0 | Velvetleaf plant response rating (0 to 10 scale) (velvetleaf; Preemergence, Rate 125 g/ha): 0 | Velvetleaf plant response rating (velvetleaf; Preemergence, Rate 250 g/ha): 0 | Velvetleaf plant response rating (velvetleaf; Preemergence, Rate 500 g/ha): 0 | Velvetleaf plant response rating (velvetleaf; Rate 62 g/ha, Postemergence): 0 | Plant response rating, Velvetleaf (velvetleaf; [4]): 3 | Plant response rating, Wheat (wheat; [3]): 0 | Plant response rating, Wheat (wheat; [1]): 0 | Plant response rating, Wheat (wheat; [2]): 0 | Wheat plant response rating (0 to 10 scale) (wheat; Preemergence, Rate 125 g/ha): 0 | Wheat plant response rating (wheat; Preemergence, Rate 250 g/ha): 0 | Wheat plant response rating (wheat; Preemergence, Rate 500 g/ha): 0 | Wheat plant response rating (wheat; Rate 62 g/ha, Postemergence): 0 | Plant response rating, Wheat (wheat; [4]): 0 | Plant response rating, Nutsedge (purple nutsedge; [3]): 0 | Plant response rating, Nutsedge (purple nutsedge; [1]): 0 | Plant response rating, Nutsedge (purple nutsedge; [2]): 0 | Nutsedge plant response rating (0 to 10 scale) (purple nutsedge; Preemergence, Rate 125 g/ha): 0 | Nutsedge plant response rating (purple nutsedge; Preemergence, Rate 250 g/ha): 0 | Nutsedge plant response rating (purple nutsedge; Preemergence, Rate 500 g/ha): 0 | Nutsedge plant response rating (purple nutsedge; Rate 62 g/ha, Postemergence): 0 | Plant response rating, Nutsedge (purple nutsedge; [4]): 0 | Plant response rating, Ducksalad (0 to 10 scale, 0 is no effect, 10 is complete control) (duck salad; Rate 62 g/ha, flood test species, Pre-emergence, visual evaluation after twelve to sixteen days): 0 | Ducksalad plant response rating (0 to 10 scale, 0 is no effect, 10 is complete control) (duck salad; Rate 125 g/ha, under heading Pre-emergence, flood test species, visual evaluation after twelve to sixteen days): 0 | Ducksalad plant response rating (duck salad; Rate 250 g/ha, Pre-emergence, flood-test species, scale 0 to 10, 0 is no effect, 10 is complete control): 0 | Ducksalad plant response rating (duck salad; Rate 500 g/ha, Pre-emergence, flood test species, scale 0 to 10 (0 no effect, 10 complete control)): 0
